Patent US12453709B2, “Compositions and methods for treating autism” (priority 2013, dated 2025)

System: symptoms of leaky gut
Experiment: Preliminary testing: effect on symptoms of leaky gut
Type: in vivo
Description: This may be due to the failure of the D amino acid isomer to be transported by the different L amino acid transport systems that exist within the body, or by completion for renal excretion that allows the L isomer to persist for a longer duration.

## C[C@](N)(Cc1ccc(O)cc1)C(=O)O (single isomer, unassigned) [Demser, α-methyl-L-tyrosine]
  duration of effect on leaky gut symptoms: short lived
  effect on the symptoms of leaky gut: beneficial effect
